Laboratory results: patent publication US20170224823A1, “PLATINUM-CATALYZED SILICONE DRUG DELIVERY DEVICES AND METHODS OF USE THEREOF” (priority 2014, published 2017)
Where “and” joins values, the source holds several entries; their conditions need not be identical. Equal entries are not always repeated.

Key:
[1] = In vitro release from condensation-cured (Sn) MEDS-6382 matrix vaginal rings; format: physicochemical
From the text: (§1) Formulations of dapivirine (DAP or DPV) with a contraceptive hormone were investigated for use with a multipurpose prevention technology (MPT) intravaginal ring system. Dapivirine and non-micronized levonorgestrel (LNG), micronized ethinyl estradiol (EE), or micronized etonogestrel (ET) were studied in condensation cured (Sn) or addition cured (Pt) silicone systems. Matrix-type vaginal rings were manufactured by injection moulding, using either MEDS-6382 (condensation-cured) or LSR9-9508-30 (addition-cured) silicone elastomers. Release of DAP and LNG from the LSR9-9508-30 rings was diffusion-controlled for the duration of the 21-day study. Total DAP release was 41% of the initial loading, while only 29% LNG loading was released. Both drugs would have continued to be released beyond 21 days had the study had continued. However, release of EE and ET ceased after 13 and 8 days respectively, with only 36 and 23% of initial drug loading released.

[2] = Raman microscopy to assess drug binding to poly(methylhydrosiloxane); format: physicochemical; conditions: Raman microscopy (FIG. 12)
From the text: FIG. 12 depicts Raman microscopy studies to assess drug binding to poly(methylhydrosiloxane). LNG: levonorgestrel, DAP: dapivirine, PRG: progesterone, EE: Ethynyl estradiol.
To determine the binding site of compounds to the silicone polymer, Raman spectroscopy studies were undertaken. In the first study, scanning Raman microscopy was used as a method for mapping drug distribution in silicone elastomer films. Thin films were created using NuSil DDU-4320 silicone elastomer and either dapivirine, micronized levonorgestrel, or non-micronized levonorgestrel. 400 points were sampled. In the second study, Raman microscopy was used as a tool to assess binding to poly(methylhydrosiloxane).

[3] = In vitro release from addition-cured (Pt) LSR9-9508-30 matrix vaginal rings; format: physicochemical; conditions: for Time after which release ceased / Total release, % of initial drug loading: LSR9-9508-30 matrix rings, 21-day study; for Total release, % of initial drug loading: non-micronized LNG, micronized EE, micronized ET; for Release mechanism: LSR9-9508-30 rings, duration of the 21-day study
From the text: as §1

[4] = test system: HIV-1 strains harboring different resistance-inducing mutations; conditions: cited from earlier work
Solubility in water = format: physicochemical
wild-type HIV-1 strains = conditions: cited from earlier work
[5] = In vitro release from platinum-catalyzed silicone matrix rings (200 mg dapivirine, 32 mg levonorgestrel), storage stability study; format: physicochemical; conditions: for Release at week-two time point: rings with micronized levonorgestrel and micronized dapivirine, stored two weeks
Description: Platinum-catalyzed silicone matrix intravaginal rings comprising 200 mg micronized dapivirine and 32 mg levonorgestrel (both micronized and non-micronized) were utilized in this study. FIGS. 1 and 2 depict the mean and cumulative daily release of dapivirine and levonorgestrel versus time for micronized levonorgestrel and micronized dapivirine on storage stability. […] For the non-micronized levonorgestrel rings, there was less than 100% recovery of the amount of levonorgestrel added in two of the rings tested for content after initial release rate testing. […] All of the levonorgestrel release rate results obtained in this study are likely to have been influenced by this phenomenon.

[6] = Recovery from NuSil DDU-4320 platinum-catalyzed silicone slabs or rings; format: physicochemical; conditions: DDU-4320 slab
Description: (§2) Methods for assaying the percent of compound having a terminal alkene, alkyne or carbonyl group recoverable from or covalently bound to a platinum-catalyzed silicone intravaginal drug delivery device of the invention are commonly known in the art. For example, silicone intravaginal rings, slabs or IUDs can be added to a glass flask. 5 mL of a 2.5 mg/mL norethindrone solution (NOR; present as an internal standard) in methanol can be added to the flask along with 95 mL of dichlormethane (DCM). The flask can be placed in a rotating orbital incubator set at 37° C. and 60 rpm for 72 hours. A 2 mL aliquot of the cooled extraction mixture can be transferred to a glass centrifuge tube and allowed to evaporate to dryness. The dried samples can be reconstituted in 10 mL of methanol with vortex mixing for 30 seconds and sonication for 40 minutes. A 1:10 dilution of this solution can be prepared using methanol and water such that the final solvent composition is 1:1. This solution and be analyzed by HPLC. Recovery can be expressed as a percentage of predicted compound as compared to the original amount of compound present in the silicone intravaginal ring, slab or IUD. The final data can be corrected based on the recovery of a control solution of known compound concentration that was “extracted” at the same time.
The influence of silicone polymer system cure time, and cure temperature on levonorgestrel was also investigated. With the understanding that the NuSil DDU-4320 could be cured at a lower temperature than NuSil MED-4870, process optimization proceeded with NuSil DDU-4320.
For example, at a cure temperature and time of 100° C. for 7 minutes, approximately 87% of the LNG added was recovered using non-micronized LNG, compared with only 12% for micronized LNG. LNG recovery decreased with increasing cure temperature and cure time for both the micronized and non-micronized LNG. For example, the recovery of micronized LNG falls from 35% to zero as the cure time at 100° C. is increased from 1.5 minutes to 30 minutes. Similarly, the recovery of non-micronized LNG falls from approximately 87% to 59% as the cure temperature is increased from 60° C. to 160° C. at a cure time of 7 minutes.
In an effort to define the maximum possible recovery of contraceptive using the best possible conditions for manufacture, further silicone slabs were prepared with non-micronized LNG. In this case, a low temperature manufacture at 60° C. with a cure time of 6 minutes was compared to a shorter higher temperature cure of 100° C. for 1.5 minutes. In addition, to define precisely the recovery of LNG expected from a ring compared to a slab, intravaginal rings were also prepared under the above conditions. […]

[7] = Recovery from NuSil MED-4870 platinum-catalyzed silicone slabs; format: physicochemical; conditions: for % LNG Recoverable: MED-4870 slab
Description: as §2
Higher cure temperatures were required for the NuSil MED-4870 system to ensure sufficient curing to allow for slab removal from the molds. […]

## C#C[C@]1(O)CC[C@H]2[C@@H]3CCc4cc(O)ccc4[C@H]3CC[C@@]21C [EE, Ethynyl Estradiol]
[1]
  Total release, MEDS-6382 compared with LSR9-9508-30: greater from MEDS-6382 than LSR9-9508-30
[2]
  Covalent binding to the silicone polymer: covalently bind
[3]
  Time after which release ceased: 13 days
  Total release, % of initial drug loading: 36%

## Cc1cc(C)c(Nc2ccnc(Nc3ccc(C#N)cc3)n2)c(C)c1 [DAP, 4-[[4-[(2,4,6-trimethylphenyl)amino]-2-pyrimidinyl]amino]benzonitrile]
[4]
  Activity against HIV-1 strains harboring resistance-inducing mutations: potent activity
[2]
  Covalent binding to the silicone polymer: do not covalently bind
Solubility in water
  Solubility in water: virtually insoluble in water
Solubility in water; water
  solubility: < 1 µg/mL
wild-type HIV-1 strains
  Activity against wild-type HIV-1 strains: potent activity
[3]
  Total release, % of initial drug loading: 41%
  Release mechanism: diffusion-controlled
[5]
  Release at week-two time point: reasonable dapivirine release

## CC(=O)[C@H]1CC[C@H]2[C@@H]3CCC4=CC(=O)CC[C@]4(C)[C@H]3CC[C@]12C [PRG, Progesterone]
[2]
  Covalent binding to the silicone polymer: covalently bind

## C#C[C@]1(O)CC[C@H]2[C@@H]3CCC4=CC(=O)CC[C@@H]4[C@H]3CC[C@@]21CC [LNG, 13-ethyl-17-ethynyl-17-hydroxy-1,2,6,7,8,9,10,11,12,13,14,15,16,17-tetrad-ecahydrocyclopenta[a]phenanthren-3-one]
[6]; micronized, 60° C., 7 min
  % LNG Recoverable: 75%
[6]; micronized, 80° C., 7 min
  % LNG Recoverable: 50%
[6]; micronized, 100° C., 1.5 min
  % LNG Recoverable: 35% and 37%
[6]; micronized, 100° C., 3 min
  % LNG Recoverable: 25%
[6]; micronized, 100° C., 7 min
  % LNG Recoverable: 10% and 18%
[6]; micronized, 100° C., 15 min
  % LNG Recoverable: 2%
[6]; micronized, 100° C., 120 min
  % LNG Recoverable: 0%
[6]; micronized, 120° C., 7 min
  % LNG Recoverable: 0%
[6]; micronized, 140° C., 7 min
  % LNG Recoverable: 0%
[6]; micronized, 160° C., 7 min
  % LNG Recoverable: 0%
[6]; non-micronized, 80° C., 7 min
  % LNG Recoverable: 83%
[6]; non-micronized, 100° C., 3 min
  % LNG Recoverable: 82%
[6]; non-micronized, 100° C., 15 min
  % LNG Recoverable: 85%
[6]; non-micronized, 100° C., 30 min
  % LNG Recoverable: 80%
[6]; non-micronized, 100° C., 120 min
  % LNG Recoverable: 75%
[6]; non-micronized, 120° C., 7 min
  % LNG Recoverable: 83%
[6]; non-micronized, 140° C., 7 min
  % LNG Recoverable: 82% and 80%
[6]; non-micronized, 160° C., 7 min
  % LNG Recoverable: 58%
[6]; non-micronized, 160° C., 7 min, listed as levonorgestrel
  % LNG Recoverable: 59%
[2]
  Covalent binding to the silicone polymer: covalently bind
[3]
  Total release, % of initial drug loading: 29%
  Release mechanism: diffusion-controlled
[7]; NuSil MED-4870 slab heated at 160° C. for 5 minutes
  Levonorgestrel content of slab: 47%
[7]; micronized, 120° C., 10 min
  % LNG Recoverable: 0%
[7]; micronized, 140° C., 10 min
  % LNG Recoverable: 0%
[7]; micronized, 160° C., 1.5 min
  % LNG Recoverable: 0%
[7]; micronized, 160° C., 7 min
  % LNG Recoverable: 0%
[7]; micronized, 160° C., 10 min
  % LNG Recoverable: 0%
[7]; micronized, 160° C., 15 min
  % LNG Recoverable: 0%
[7]; micronized, 160° C., 20 min
  % LNG Recoverable: 0%
[7]; micronized, 160° C., 30 min
  % LNG Recoverable: 0%
[7]; micronized, 160° C., 120 min
  % LNG Recoverable: 0%
[7]; micronized, 180° C., 10 min
  % LNG Recoverable: 0%
[7]; micronized, 200° C., 10 min
  % LNG Recoverable: 0%
[7]; non-micronized, 120° C., 10 min
  % LNG Recoverable: 65%
[7]; non-micronized, 140° C., 10 min
  % LNG Recoverable: 55%
[7]; non-micronized, 160° C., 1.5 min
  % LNG Recoverable: 65%
[7]; non-micronized, 160° C., 7 min
  % LNG Recoverable: 47%
[7]; non-micronized, 160° C., 10 min
  % LNG Recoverable: 60%
[7]; non-micronized, 160° C., 15 min
  % LNG Recoverable: 33%
[7]; non-micronized, 160° C., 20 min
  % LNG Recoverable: 28%
[7]; non-micronized, 160° C., 30 min
  % LNG Recoverable: 10%
[7]; non-micronized, 160° C., 120 min
  % LNG Recoverable: 0%
[7]; non-micronized, 180° C., 10 min
  % LNG Recoverable: 8%
[7]; non-micronized, 200° C., 10 min
  % LNG Recoverable: 0%
[5]; non-micronized levonorgestrel
  Release from platinum catalyzed silicone rings, non-micronized compared to micronized: increased release
[5]; rings with micronized levonorgestrel
  Release of levonorgestrel detected initially (T0): negligible release
[5]
  Release at week-two time point: lack of levonorgestrel release

## C#C[C@]1(O)CC[C@H]2[C@@H]3CCC4=CC(=O)CC[C@@H]4[C@H]3C(=C)C[C@@]21CC [ET, etonogestrel]
[1]
  Total release, MEDS-6382 compared with LSR9-9508-30: greater from MEDS-6382 than LSR9-9508-30
[3]
  Time after which release ceased: 8 days
  Total release, % of initial drug loading: 23%
